Data from US9422289B2, “Use of pteridine derivatives for the treatment of increased intracranial pressure, secondary ischemia, and disorders associated with an increased level of cytotoxic reactive oxygen species” (VASOPHARM GMBH, priority 2003, dated 2016).

How the values were obtained:
Vitamin D3 (h) = target: T1, Vitamin D3 (h) (Homo sapiens, UniProt P11473); type: binding; details: 10 µM
T1 construct: Cerep (assay catalogue, edition 2002) 848-h

NMDA = assay: Radioligand binding, Cerep 895-3; details: 10 µM
[1] = system: Ca^2+ channel (L, verapamil site); assay: Radioligand binding, Cerep 861-L3; details: 10 µM
M3 (h) = M3 (h) (Homo sapiens, UniProt P20309); assay: Radioligand binding, Cerep 806-3h; details: 10 µM
AT2 (h) = AT2 (h) (Homo sapiens, UniProt P50052); type: binding; details: 10 µM
Chain of AT2 (h) (P50052 whole entry): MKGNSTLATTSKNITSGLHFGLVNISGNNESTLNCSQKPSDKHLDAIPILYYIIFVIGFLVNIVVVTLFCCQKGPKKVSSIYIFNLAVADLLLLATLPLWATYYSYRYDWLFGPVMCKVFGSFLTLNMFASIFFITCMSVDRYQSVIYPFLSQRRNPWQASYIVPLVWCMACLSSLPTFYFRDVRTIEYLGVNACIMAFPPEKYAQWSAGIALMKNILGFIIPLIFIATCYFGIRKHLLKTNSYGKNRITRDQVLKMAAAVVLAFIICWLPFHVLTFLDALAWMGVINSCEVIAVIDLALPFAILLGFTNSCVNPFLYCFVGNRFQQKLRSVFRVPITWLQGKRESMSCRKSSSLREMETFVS

H1 (central) = H1 (central) (Cavia porcellus, UniProt P31389); type: binding; details: 10 µM
[2] = system: Na^+ channel (h) (stimulated); assay: Cell biology assay, Cerep 739-1; type: cell-based, human; details: 10 µM
5-HT1D = assay: Radioligand binding, Cerep 808-1d; details: 10 µM
PDGF = assay: Radioligand binding, Cerep 881; details: 10 µM
5-HT uptake = 5-HT uptake (Rattus norvegicus, UniProt P31652); type: cell-based; details: 10 µM
Chain of 5-HT uptake (P31652 whole entry): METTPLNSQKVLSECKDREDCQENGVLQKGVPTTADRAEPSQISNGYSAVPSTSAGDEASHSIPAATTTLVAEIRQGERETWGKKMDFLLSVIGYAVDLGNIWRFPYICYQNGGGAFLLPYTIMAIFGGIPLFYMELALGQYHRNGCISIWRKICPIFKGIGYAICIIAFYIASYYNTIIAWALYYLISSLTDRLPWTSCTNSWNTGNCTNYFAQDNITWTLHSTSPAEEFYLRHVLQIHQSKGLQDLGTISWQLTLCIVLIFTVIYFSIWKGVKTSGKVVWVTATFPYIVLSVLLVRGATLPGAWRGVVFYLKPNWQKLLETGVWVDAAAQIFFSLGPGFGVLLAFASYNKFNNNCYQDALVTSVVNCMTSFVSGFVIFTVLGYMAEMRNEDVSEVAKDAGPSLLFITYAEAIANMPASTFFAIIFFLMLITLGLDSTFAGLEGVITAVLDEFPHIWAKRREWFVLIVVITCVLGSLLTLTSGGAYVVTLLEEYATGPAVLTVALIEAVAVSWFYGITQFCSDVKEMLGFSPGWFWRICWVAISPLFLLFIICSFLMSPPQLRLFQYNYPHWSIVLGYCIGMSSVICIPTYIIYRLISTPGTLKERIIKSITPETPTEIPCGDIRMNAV

Kainate = assay: Radioligand binding, Cerep 895-2; details: 10 µM
Acetylcholinesterase (h) = Acetylcholinesterase (h) (Homo sapiens, UniProt P22303); type: biochemical; details: 10 µM
Chain of Acetylcholinesterase (h) (P22303 32-614): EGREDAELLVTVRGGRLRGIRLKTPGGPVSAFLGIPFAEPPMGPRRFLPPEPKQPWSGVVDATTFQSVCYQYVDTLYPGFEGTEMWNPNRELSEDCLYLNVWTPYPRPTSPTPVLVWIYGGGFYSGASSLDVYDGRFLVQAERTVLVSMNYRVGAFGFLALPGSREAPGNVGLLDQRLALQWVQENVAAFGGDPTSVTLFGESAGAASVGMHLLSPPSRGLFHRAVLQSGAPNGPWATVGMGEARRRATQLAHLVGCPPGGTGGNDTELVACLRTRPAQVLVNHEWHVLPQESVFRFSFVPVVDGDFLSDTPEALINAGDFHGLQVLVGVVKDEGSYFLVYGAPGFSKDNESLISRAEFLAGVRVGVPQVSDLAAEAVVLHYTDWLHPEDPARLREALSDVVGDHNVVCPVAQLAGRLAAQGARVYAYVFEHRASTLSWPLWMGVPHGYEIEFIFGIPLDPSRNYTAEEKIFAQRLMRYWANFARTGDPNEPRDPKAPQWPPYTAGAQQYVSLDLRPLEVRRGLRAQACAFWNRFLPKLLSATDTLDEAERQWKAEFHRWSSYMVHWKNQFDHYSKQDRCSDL

α1 (non-selective) = assay: Radioligand binding, Cerep 802-1a; details: 10 µM
[3] = system: isolated rat middle cerebral arteries (MCA); assay: Contractile action in isolated rat middle cerebral arteries
ETA (h) = ETA (h) (Homo sapiens, UniProt P25101); type: binding; details: 10 µM
5-HT2B (h) = target: T2, 5-HT2B (h) (Homo sapiens, UniProt P41595); type: binding; details: 10 µM
T2 construct: Cerep (assay catalogue, edition 2002) 808-2bh

DA uptake = DA uptake (Rattus norvegicus, UniProt P23977); type: cell-based; details: 10 µM
Chain of DA uptake (P23977 whole entry): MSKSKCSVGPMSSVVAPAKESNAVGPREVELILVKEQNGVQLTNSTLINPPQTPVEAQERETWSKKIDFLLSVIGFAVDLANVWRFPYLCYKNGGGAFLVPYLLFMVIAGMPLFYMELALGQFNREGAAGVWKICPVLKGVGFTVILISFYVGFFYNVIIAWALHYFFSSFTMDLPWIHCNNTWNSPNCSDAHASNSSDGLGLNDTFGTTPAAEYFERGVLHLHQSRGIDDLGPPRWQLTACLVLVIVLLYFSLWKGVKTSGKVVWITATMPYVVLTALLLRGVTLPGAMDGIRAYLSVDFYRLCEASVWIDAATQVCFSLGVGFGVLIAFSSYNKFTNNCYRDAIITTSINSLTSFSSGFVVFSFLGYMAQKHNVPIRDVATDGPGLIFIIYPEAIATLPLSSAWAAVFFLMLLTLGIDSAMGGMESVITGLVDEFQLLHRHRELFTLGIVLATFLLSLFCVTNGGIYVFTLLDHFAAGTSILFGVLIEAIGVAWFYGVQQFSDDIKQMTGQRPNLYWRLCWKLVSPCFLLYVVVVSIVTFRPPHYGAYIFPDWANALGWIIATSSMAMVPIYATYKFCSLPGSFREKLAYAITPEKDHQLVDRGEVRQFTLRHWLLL

5-HT1B = 5-HT1B (Rattus norvegicus, UniProt P28564); type: binding; details: 10 µM
[4] = system: β-adrenoceptor - G protein coupling; type: cell-based
[5] = system: Protein kinase A (stimulated); assay: Cell biology assay, Cerep 706-2; type: cell-based; details: 10 µM
Phosphodiesterase V (h) = target: T3, Phosphodiesterase V (h) (Homo sapiens, UniProt O76074); type: biochemical; details: 10 µM
T3 construct: Cerep (assay catalogue, edition 2002) 752-e

EGF (h) = EGF (h) (Homo sapiens, UniProt P00533); assay: Radioligand binding, Cerep […]; details: 10 µM
GABAB = GABAB (Rattus norvegicus, UniProt Q9Z0U4); type: binding; details: 10 µM
[6] = system: Cell proliferation (PDGF-stimulated Balb/c 3T3); assay: Cell biology assay, Cerep 791-3; type: cell-based; details: 10 µM
[7] = system: Cell proliferation (h) (EGF-stimulated A-431); assay: cells; type: cell-based, human; details: 10 µM
β1 (h) = β1 (h) (Homo sapiens, UniProt P08588); type: binding; details: 10 µM
D1 (h) = D1 (h) (Homo sapiens, UniProt P21728); type: binding; details: 10 µM
Chain of D1 (h) (P21728 whole entry): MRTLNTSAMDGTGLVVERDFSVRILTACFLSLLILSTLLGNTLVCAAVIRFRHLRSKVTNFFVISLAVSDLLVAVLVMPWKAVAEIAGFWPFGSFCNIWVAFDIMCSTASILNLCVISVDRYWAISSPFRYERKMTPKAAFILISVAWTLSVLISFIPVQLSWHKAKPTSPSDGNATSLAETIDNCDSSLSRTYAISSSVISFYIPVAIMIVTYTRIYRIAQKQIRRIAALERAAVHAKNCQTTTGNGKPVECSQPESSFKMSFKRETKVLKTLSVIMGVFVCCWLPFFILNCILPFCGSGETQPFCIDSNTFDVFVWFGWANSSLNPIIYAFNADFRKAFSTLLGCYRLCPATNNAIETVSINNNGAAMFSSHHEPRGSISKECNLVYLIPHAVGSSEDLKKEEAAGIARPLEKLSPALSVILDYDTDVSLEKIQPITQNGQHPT

IP3 = assay: Radioligand binding, Cerep 861-5; details: 10 µM
K^+ATP channel = K^+ATP channel (Rattus norvegicus, UniProt Q09429); assay: Radioligand binding, Cerep 863-1; details: 10 µM
Chain of K^+ATP channel (P70673 whole entry): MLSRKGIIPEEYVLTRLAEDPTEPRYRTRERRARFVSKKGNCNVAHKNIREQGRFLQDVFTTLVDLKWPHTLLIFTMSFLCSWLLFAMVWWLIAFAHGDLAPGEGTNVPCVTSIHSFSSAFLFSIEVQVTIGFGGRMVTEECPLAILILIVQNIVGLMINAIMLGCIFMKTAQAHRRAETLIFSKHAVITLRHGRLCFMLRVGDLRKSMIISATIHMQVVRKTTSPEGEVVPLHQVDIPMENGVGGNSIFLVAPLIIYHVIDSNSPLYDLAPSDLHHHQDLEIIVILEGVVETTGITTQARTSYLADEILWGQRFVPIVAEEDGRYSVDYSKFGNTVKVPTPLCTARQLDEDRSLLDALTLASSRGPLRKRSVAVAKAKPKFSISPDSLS
Chain of K^+ATP channel (Q09429 whole entry): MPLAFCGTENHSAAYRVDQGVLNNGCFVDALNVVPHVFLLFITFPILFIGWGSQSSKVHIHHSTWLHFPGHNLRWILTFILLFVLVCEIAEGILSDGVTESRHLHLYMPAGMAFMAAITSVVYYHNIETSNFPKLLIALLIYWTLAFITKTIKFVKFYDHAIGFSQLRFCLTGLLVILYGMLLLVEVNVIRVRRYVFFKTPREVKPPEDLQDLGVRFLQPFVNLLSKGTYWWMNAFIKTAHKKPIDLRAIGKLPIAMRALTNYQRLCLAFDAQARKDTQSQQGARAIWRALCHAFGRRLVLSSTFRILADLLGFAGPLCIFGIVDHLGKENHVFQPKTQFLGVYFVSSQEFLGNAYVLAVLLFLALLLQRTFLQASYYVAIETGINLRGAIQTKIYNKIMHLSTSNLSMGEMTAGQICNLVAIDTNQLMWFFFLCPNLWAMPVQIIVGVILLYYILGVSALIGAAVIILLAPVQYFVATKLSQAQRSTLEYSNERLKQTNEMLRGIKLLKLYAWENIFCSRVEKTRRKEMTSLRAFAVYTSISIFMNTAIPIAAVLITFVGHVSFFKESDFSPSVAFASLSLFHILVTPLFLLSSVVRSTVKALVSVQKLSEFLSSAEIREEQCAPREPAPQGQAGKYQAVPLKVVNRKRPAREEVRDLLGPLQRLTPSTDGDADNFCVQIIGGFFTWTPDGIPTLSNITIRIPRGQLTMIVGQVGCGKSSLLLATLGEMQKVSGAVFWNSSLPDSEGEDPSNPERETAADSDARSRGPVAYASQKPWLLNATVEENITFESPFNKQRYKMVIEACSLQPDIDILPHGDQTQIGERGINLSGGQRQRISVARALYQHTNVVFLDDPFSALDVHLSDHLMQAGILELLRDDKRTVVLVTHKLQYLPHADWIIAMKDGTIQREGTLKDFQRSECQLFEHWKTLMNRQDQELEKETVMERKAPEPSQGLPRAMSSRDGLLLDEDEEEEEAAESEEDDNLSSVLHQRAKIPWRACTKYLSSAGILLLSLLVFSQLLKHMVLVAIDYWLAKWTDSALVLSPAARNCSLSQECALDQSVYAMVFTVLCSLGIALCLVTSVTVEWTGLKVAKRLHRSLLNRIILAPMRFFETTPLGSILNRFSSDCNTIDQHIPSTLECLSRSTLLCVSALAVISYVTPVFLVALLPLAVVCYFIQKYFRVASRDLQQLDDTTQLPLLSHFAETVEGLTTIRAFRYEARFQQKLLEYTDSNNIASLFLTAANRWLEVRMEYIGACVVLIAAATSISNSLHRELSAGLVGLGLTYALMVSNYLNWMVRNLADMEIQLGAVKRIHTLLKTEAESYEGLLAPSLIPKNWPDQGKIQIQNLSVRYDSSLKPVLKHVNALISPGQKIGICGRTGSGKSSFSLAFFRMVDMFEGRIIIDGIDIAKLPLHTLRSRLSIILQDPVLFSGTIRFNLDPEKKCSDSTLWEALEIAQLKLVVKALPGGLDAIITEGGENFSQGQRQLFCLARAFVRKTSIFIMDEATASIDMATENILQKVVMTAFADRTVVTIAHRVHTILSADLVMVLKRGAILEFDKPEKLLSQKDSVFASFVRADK

5-HT2A (h) = target: T4, 5-HT2A (h) (Homo sapiens, UniProt P28223); assay: Radioligand binding, Cerep 808-2h; details: 10 µM
T4 construct: Cerep (assay catalogue, edition 2002) 808-2h

GABAA = assay: Radioligand binding, Cerep 804-1; details: 10 µM
M2 (h) = M2 (h) (Homo sapiens, UniProt P08172); type: binding; details: 10 µM
[8] = target: T5, NOS inducible (whole cells/spectrophoto.) (Mus musculus, UniProt P29477); assay: Cell biology assay, Cerep 766-i1; type: cell-based; details: 10 µM
T5 construct: Cerep (assay catalogue, edition 2002) 766-i1

NE uptake = NE uptake (Rattus norvegicus, UniProt Q63380); type: cell-based; details: 10 µM
H2 = H2 (Cavia porcellus, UniProt P47747); type: binding; details: 10 µM
[9] = target: Phosphodiesterase III (h) (Homo sapiens, UniProt Q14432); assay: Cell biology assay, Cerep 752-ch; type: biochemical; details: 10 µM
PAF = PAF (Oryctolagus cuniculus, UniProt G1TEI7); assay: Radioligand binding, Cerep 830; details: 10 µM
SK^+Ca channel = assay: Radioligand binding, Cerep 863-3; details: 10 µM
ETB (h) = ETB (h) (Homo sapiens, UniProt P24530); assay: Radioligand binding, Cerep 825-2h; details: 10 µM
M1 (h) = M1 (h) (Homo sapiens, UniProt P11229); type: binding; details: 10 µM
[10] = system: β-adrenoceptor -G protein coupling; type: cell-based; details: 10 µM
Na^+/K^+ ATPase (pump) = assay: Cell biology assay, Cerep 734; type: cell-based; details: 10 µM
β2 (h) = β2 (h) (Homo sapiens, UniProt P07550); type: binding; details: 10 µM
AMPA = assay: Radioligand binding, Cerep 895-1; details: 10 µM
[11] = system: Ca^2+ channel (L, DHP site); type: binding; details: 10 µM
ATPase (Na^+/K^+) = assay: Cell biology assay, Cerep 760; type: biochemical; details: 10 µM
[12] = system: L-type Ca^2+ channel (stimulated); assay: Cell biology assay, Cerep 740-1; type: cell-based; details: 10 µM
Ca^2+-ATPase (pump) = assay: Cell biology assay, Cerep 735; type: cell-based; details: 10 µM
GABA (non-selective) = type: binding; details: 10 µM
AT1 (h) = AT1 (h) (Homo sapiens, UniProt P30556); assay: Radioligand binding, Cerep 821-1h; details: 10 µM
Chain of AT1 (h) (P30556 whole entry): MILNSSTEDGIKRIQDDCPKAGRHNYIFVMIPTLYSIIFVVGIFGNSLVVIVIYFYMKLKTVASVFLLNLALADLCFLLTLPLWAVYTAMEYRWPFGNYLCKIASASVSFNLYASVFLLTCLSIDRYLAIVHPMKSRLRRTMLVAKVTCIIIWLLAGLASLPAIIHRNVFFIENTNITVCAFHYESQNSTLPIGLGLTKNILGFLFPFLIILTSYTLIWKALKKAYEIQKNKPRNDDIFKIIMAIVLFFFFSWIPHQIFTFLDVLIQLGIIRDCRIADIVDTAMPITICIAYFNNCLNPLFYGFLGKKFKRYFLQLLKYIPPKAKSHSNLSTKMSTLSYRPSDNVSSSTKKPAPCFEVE

[13] = system: isolated rat basilar arteries (BA); assay: Contractile action in isolated rat basilar arteries
K^+V channel = assay: Radioligand binding, Cerep 863-2; details: 10 µM
[14] = system: Ca^2+ channel (L, diltiazem site); type: binding; details: 10 µM
Estrogen (ER) = assay: Radioligand binding, Cerep 813; details: 10 µM
α2 (non-selective) = assay: Radioligand binding, Cerep 802-1b; details: 10 µM
[15] = target: T6, NOS constitutive (h) (endothelial) (Homo sapiens, UniProt P29474); type: biochemical; details: 10 µM
T6 construct: Cerep (assay catalogue, edition 2002) 766-c

D2 (h) = D2 (h) (Homo sapiens, UniProt P14416); type: binding; details: 10 µM

CC(O)C(O)C1CNc2nc(N)nc(N)c2N1 [H4-aminobiopterin, 2,4-diamino-5,6,7,8-tetrahydro-6-(L-erythro-1,2-dihydroxypropyl)-pteridine]
percent inhibition of control specific binding (Vitamin D3 (h)): — (key: The symbol — indicates an inhibition of less than 10%.) | percent inhibition of control specific binding (NMDA): — (key: The symbol — indicates an inhibition of less than 10%.) | percent inhibition of control specific binding [1]: — (key: The symbol — indicates an inhibition of less than 10%.) | percent inhibition of control specific binding (M3 (h)): 10% | percent inhibition of control specific binding (AT2 (h)): 16% | percent inhibition of control specific binding (H1 (central)): — (key: The symbol — indicates an inhibition of less than 10%.) | percent inhibition of control activity [2]: 12% | percent inhibition of control specific binding (5-HT1D): — (key: The symbol — indicates an inhibition of less than 10%.) | percent inhibition of control specific binding (PDGF): — (key: The symbol — indicates an inhibition of less than 10%.) | percent inhibition of control activity (5-HT uptake): — (key: The symbol — indicates an inhibition of less than 10%.) | percent inhibition of control specific binding (Kainate): — (key: The symbol — indicates an inhibition of less than 10%.) | percent inhibition of control activity (Acetylcholinesterase (h)): — (key: The symbol — indicates an inhibition of less than 10%.) | percent inhibition of control specific binding (α1 (non-selective)): — (key: The symbol — indicates an inhibition of less than 10%.) | contraction relative to contraction caused by 124 mM K^+-Krebs solution [3]: clear concentration dependent contraction | percent inhibition of control specific binding (ETA (h)): — (key: The symbol — indicates an inhibition of less than 10%.) | percent inhibition of control specific binding (5-HT2B (h)): — (key: The symbol — indicates an inhibition of less than 10%.) | percent inhibition of control activity (DA uptake): — (key: The symbol — indicates an inhibition of less than 10%.) | percent inhibition of control specific binding (5-HT1B): — (key: The symbol — indicates an inhibition of less than 10%.) | stimulation of control activity [4]: 11 | percent inhibition of control activity [5]: — (key: The symbol — indicates an inhibition of less than 10%.) | percent inhibition of control activity (Phosphodiesterase V (h)): — (key: The symbol — indicates an inhibition of less than 10%.) | percent inhibition of control specific binding (EGF (h)): 10% | percent inhibition of control specific binding (GABAB): — (key: The symbol — indicates an inhibition of less than 10%.) | percent inhibition of control activity [6]: — (key: The symbol — indicates an inhibition of less than 10%.) | percent inhibition of control activity [7]: 23% | percent inhibition of control specific binding (β1 (h)): — (key: The symbol — indicates an inhibition of less than 10%.) | percent inhibition of control specific binding (D1 (h)): — (key: The symbol — indicates an inhibition of less than 10%.) | percent inhibition of control specific binding (IP3): — (key: The symbol — indicates an inhibition of less than 10%.) | percent inhibition of control specific binding (K^+ATP channel): — (key: The symbol — indicates an inhibition of less than 10%.) | percent inhibition of control specific binding (5-HT2A (h)): — (key: The symbol — indicates an inhibition of less than 10%.) | percent inhibition of control specific binding (GABAA): — (key: The symbol — indicates an inhibition of less than 10%.) | percent inhibition of control specific binding (M2 (h)): — (key: The symbol — indicates an inhibition of less than 10%.) | percent inhibition of control activity [8]: — (key: The symbol — indicates an inhibition of less than 10%.) | percent inhibition of control activity (NE uptake): — (key: The symbol — indicates an inhibition of less than 10%.) | percent inhibition of control specific binding (H2): — (key: The symbol — indicates an inhibition of less than 10%.) | percent inhibition of control activity [9]: — (key: The symbol — indicates an inhibition of less than 10%.) | percent inhibition of control specific binding (PAF): — (key: The symbol — indicates an inhibition of less than 10%.) | percent inhibition of control specific binding (SK^+Ca channel): — (key: The symbol — indicates an inhibition of less than 10%.) | percent inhibition of control specific binding (ETB (h)): — (key: The symbol — indicates an inhibition of less than 10%.) | percent inhibition of control specific binding (M1 (h)): — (key: The symbol — indicates an inhibition of less than 10%.) | percent of inhibition of control activity [10]: 31% | percent inhibition of control activity (Na^+/K^+ ATPase (pump)): — (key: The symbol — indicates an inhibition of less than 10%.) | percent inhibition of control specific binding (β2 (h)): — (key: The symbol — indicates an inhibition of less than 10%.) | percent inhibition of control specific binding (AMPA): — (key: The symbol — indicates an inhibition of less than 10%.) | percent inhibition of control specific binding [11]: — (key: The symbol — indicates an inhibition of less than 10%.) | percent inhibition of control activity (ATPase (Na^+/K^+)): — (key: The symbol — indicates an inhibition of less than 10%.) | percent inhibition of control activity [12]: — (key: The symbol — indicates an inhibition of less than 10%.) | percent inhibition of control activity (Ca^2+-ATPase (pump)): — (key: The symbol — indicates an inhibition of less than 10%.) | percent inhibition of control specific binding (GABA (non-selective)): — (key: The symbol — indicates an inhibition of less than 10%.) | percent inhibition of control specific binding (AT1 (h)): — (key: The symbol — indicates an inhibition of less than 10%.) | contraction relative to contraction caused by 124 mM K^+-Krebs solution [13]: clear concentration dependent contraction | percent inhibition of control specific binding (K^+V channel): — (key: The symbol — indicates an inhibition of less than 10%.) | percent inhibition of control specific binding [14]: — (key: The symbol — indicates an inhibition of less than 10%.) | percent inhibition of control specific binding (Estrogen (ER)): — (key: The symbol — indicates an inhibition of less than 10%.) | percent inhibition of control specific binding (α2 (non-selective)): — (key: The symbol — indicates an inhibition of less than 10%.) | percent inhibition of control activity [15]: 76% | percent inhibition of control specific binding (D2 (h)): — (key: The symbol — indicates an inhibition of less than 10%.)
